Measurements as given in patent US12049638B2, “Synthetic genetic elements for biomanufacture” (Janssen Biotech, Inc., priority 2019, dated 2024).

B1: SR21 recombinase: putative serine recombinase from Bacillus safensis strain CCMA-560, SEQ ID NO:2, expressed from plasmid P175 (protein)
chain: MELKHIVNSYNVTKIIGYLRRSRQDVEREKRTGEDTLTEQKELMNKILTGIEIPYETRTEIGSGESIEGRPVFKSCLADLRSGKFQAIAVKEITRLSRGSYSDAGEIVNLLNEKRIIIITPYKIYDPRNPVDARQIRFELFMAREEFEMTRERMNGAKFTYAAQGKWISGLAPFGYKLNKRTSRLEPSDEDKVVVKLIFDIFLNGLDGKDLSYTAIATHLSKLQFTTPRGGKRWSKDTVRKILQNEAYMGRVRYKARETTKDGKKVFRPESEHIVVDDAHEPIINKEDFEAVQEKIKNKVPLLPVVTSYEPNELAGICVCSVCGKSLQKFESEYNRKNKDGTSSYFHVKLLICKINKCTSVRYEYVEEAILEYLEQLIALENNKLKAIIEKSMEAAETNNSEKTSEQMLVQANQKQKELENKLTFIFEKFESGIYTDEMFLQRKAAIEKEVADIKKLKQELSMTFEVKEKDVNEFRVNISDVVKFYKESKSRGLKNEKLRSIFDFIVLEMTEKRRGPIPAKFNIYPVLRIPSVVN
modifications: SR21 Recombinase (WP_029708089.1) Protein Sequence

Assays:
[1] = tested on: P600-PEAK-Rapid cells; test: AAV production from P600 stable pool after Ad5-CMV-SR21 infection, with 2-aminopurine, ddPCR mCherry assay; assay type: cell-based, human
Method: ddPCR quantitation was based on the method described by Lock et al. (2014) Human Gene Therapy methods 23: 115-125. Two 1 of the lysate was DNAse digested in 20 reactions containing 1× PCR buffer+20 mM Tris pH 8.5+8 units DNAse I at 37° C. for 1 hour 96-well plates in a thermocycler. 2 μl of the DNAse digested samples were diluted with 98 Virus Dilution Buffer (VDB) and 2 μl of this dilution was added to ddPCR reactions containing 1× PCR SuperMix+1× PCR Primer/Probe for the mCherry transgene (See Materials section). ddPCR droplets were formed using the Bio-Rad automated droplet maker. PCR cycling was as follows: 95° C. 10 min; 42× (94° C. 30s, 60° C. 1 min, 72° C. 15s all three at cycling time of 2° C. per s); 98° C. 10 min; 4° C. hold. FAM fluorescence was detected on the Bio-Rad droplet reader as per manufacturer's instructions. The clones that produced the highest DNAse-resistant particles as detected as FAM-fluorescence positive droplets were subjected to expansion and further screening.
Construct P600 was transfected into Peak-RAPID cells and a stable pool was generated through selection with 0.5 μg/ml puromycin essentially as described for P439 cells above. Cells were passed 1:10 for 6 weeks prior to assaying AAV production.
2.5E6 P600-PEAK-Rapid p6 cells were plated into three T25 flasks in 5 mls DMEM+10% FBS and incubated for three days at 37° C. The cells density on the day of infection was determined to be 6.6E6 viable cells in one of the flasks where cells were recovered with TrypLE and counted using Trypan blue exclusion. Media in the two remaining flasks were replaced with […] DMEM+2% FBS containing 2.6E8 Ad5-CMV-SR21 virus particles. The flasks were incubated for 24 hours at 32° C. […] One ml of DMEM+2% FBS was added to the other flask, and both flasks were incubated at 32° C. for 7 additional days. Media was recovered from the flasks, centrifuged at 3,000 rpm for 5 minutes to pellet cells and debris. 2 μl of each sample supernatant was subjected to DNAse digestion and ddPCR quantitation using the mCherry assay as described above.

[2] = tested on: adenovirus infection; conditions: cited from earlier work
[3] = tested on: recombinase reporter plasmid (P41) with SR21 attP and attB signals; test: Recombinase reporter assay (Dual Glo firefly/Renilla luciferase) in transfected HEK293 cells; assay type: cell-based, human
From the text: A vector (P175) (SEQ ID NO:10) was constructed by Gene Synthesis (GENEWIZ, Plainfield, N.J.) to express SR21 recombinase in mammalian cells under control of the CMV promoter and followed by an SV40 polyadenylation signal. The SR21 recombinase open reading frame is the same as SEQ ID NO:3 except that the bacterial translation initiation codon “TTG” is replaced by an “ATG”, and three point-mutations were introduced to destroy restriction endonuclease recognition sites.
A recombinase reporter plasmid (P41) was also constructed by gene synthesis (GENEWIZ, Plainfield, N.J.) (SEQ ID NO:11; FIG. 4). It encodes a constitutively expressed green fluorescent protein (GFP)—self-cleaving F2A—Renilla luciferase (rLUC) fusion protein driven by the EF1α promoter. It also encodes recombinase activated—mCherry-self cleaving P2A-firefly luciferase (fLUC) reporter gene flanked by SR21 attP (SEQ ID NO:7) and attB (SEQ ID NO:9) signals in the antisense orientation relative to the CMV promoter. When SR21 recombinase recombines the attP and attB signals, the coding region is inverted into the sense orientation and the mCherry-P2A-fLUC protein is expressed (See FIG. 4).
To measure SR21 recombinase activity in human cells, 75,000 HEK293 cells were plated into each well of 96-well tissue culture plates in 100 of high-glucose DMEM+10% Fetal Bovine Serum. The recombinase reporter plasmid (P041) the SR21 Recombinase expression plasmid (P175)+[…] (to normalize DNA amounts) were complexed with Fugene-HD transfection reagent in OptiMEM medium for 15 minutes at room temperature as shown in Table 1 and transfected into triplicate wells of the plated cells. Plates were incubated at 37° C. for 48 hours.
Firefly Luciferase (fLUC) and Renilla luciferase (rLUC) was assayed sequentially in transfected wells using the Dual Glo assay kit from Promega. Medium was removed from the transfected wells of the tissue culture plate and 100 μl of a 1:1 mixture of DMEM medium (without phenol red) and the Dual Glo luciferase+fLUC substrate was added. The plate was incubated at room temperature for 10 minutes. The lysate was transferred to an opaque white 96-well plate. fLUC activity was measured using the Envision multilabel reader. Next, 50 μl per well of the Stop-and-Glo buffer+Renilla substrate was added and the plate was incubated with gentle shaking for 10 minutes. The Renilla luciferase signal was read on the same Envision reader.

[4] = tested on: Stop Cassette of vector P439 (attP/attB); test: Stop Cassette removal by SR21 Recombinase, co-transfection of P439 and P175, PCR and sequencing; assay type: cell-based, human; conditions: PEAK-Rapid cells, three days; PCR product sequenced; attL produced
Method: Media was removed, cells were washed once with D-PBS and then incubated with TrypLE for 5 minutes at 37° C. Cells were transferred to a sterile microfuge tube, pelleted by centrifugation, washed once with 1 ml D-PBS and pelleted again. Episomal plasmids were recovered by alkaline lysis using the Qiagen Spin Miniprep kit designed for isolating plasmids from bacteria.
To destroy unrecombined plasmid DNA, an aliquot of the recovered DNA was digested with enzyme Spe I-HF in 1× CutSmart Buffer at 37° C. Ihour and 80° C. 20 minutes. The recovered DNA was subjected to PCR amplification with primers P349F3 (SEQ ID NO:32) and P349R9 (SEQ ID NO:33) using NEXT Ultra II Q5 Master Mix with the following cycling conditions: 98° C. 1 min; 35× (98° C. 10s, 72° C. 10s); 5 min 72° C. A single PCR product of the predicted size was observed when subjected to electrophoresis on a 1% agarose gel. The PCR product was purified by size exclusion chromatography using a CHROMA SPIN™+TE-1000 Column. The PCR product was sequenced using the same primers used for PCR (GeneWiz).

Molecule	AAV GC/Cell ([1]; DMEM + 2% FBS + 1.25 mM 2-AP added 24 hours post infection, 32° C., 7 additional days, media)	effect on AAV production ([1]; concentrations above 1.25 mM and addition earlier than 24 hours)	increase in AAV virus production ([1]; in the presence of 2-aminopurine versus without, P600 stable pool) [fold]	cytopathic effect of adenovirus infection ([2]; 10 mM 2-AP treatment 1-2 hours post infection)	toxicity to cells ([2]; 10 mM 2-AP, for at least three days)	rLUC ([3]; 100 ng P41 reporter + 100 ng P175, 48 hours, constitutive Renilla luciferase (transfection efficiency))	fLUC ([3]; 100 ng P41 reporter + 100 ng P175 recombinase expression plasmid, 48 hours)	Fold-Increase in fLUC Activity ([3]; reporter + recombinase expression plasmid versus reporter + deoxynucleotides) [fold]	SR21 recombinase activity in human cells ([3]; representative of three independent experiments)	removal of STOP cassette from plasmid P439 by recombining attP and attB [4]
Nc1ncc2[nH]cnc2n1 [2-AP, 2-aminopurine]	59,356 ± 11,026 GC/Cell	inhibitory	2.5	blocked	nontoxic					
B1						3.4E06 ±	6.6E06 ±	1535	highly active	precisely removed
